{"source": "patent US11986470B2", "about": "“Methods of treating prostate cancer” (Janssen Pharmaceutica NV, priority 2016, dated 2024)", "key": {"[1]": {"tested_on": "C4-2B human prostate tumors", "protocol": "This tumor model is not believed to be BRCA-1 or BRCA-2 deficient. Vehicle was 0.5% Methyl cellulose (MethocelTM [MUT]) prepared and kept at 4° C. in the dark. All formulations were made to be dosed at a volume of 10 ml/kg body weight. NSG male mice (Jackson Laboratories) were used. Animals were habituated for one week prior to any experimental procedures being performed. […] Mice were fed an autoclaved high fat (6%) diet laboratory chow and water ad libitum. Mice were injected with LNCaP C4-2B-luc tagged cells (1×10^6 tumors cells in a 200 μl volume of Cultrex®:RPMI 1640 medium (1:1 ratio) on the right flank. […] Mice were dosed daily by gavage (p.o.) with either vehicle, or vehicle containing niraparib as indicated below at 10 ml/kg dosing volume. Start of treatment=Day 1. Mice were treated through study day 24. […] For each individual animal, body weight and tumor volume [using the formula: Tumor Volume (mm3)=(a×b^2/2); where 'a' represents the length, and 'b' the width of the tumor as determined by caliper measurements], were monitored twice weekly throughout the study. For the pre-established tumors, a time-course of tumor growth is expressed as mean±standard error of the mean (SEM)."}, "γ-H2AX in 22RV1 cells": {"tested_on": "γ-H2AX in 22RV1 cells", "conditions": "22RV1 (printed 22AV1), 18 hours"}, "22Rv1 cells": {"tested_on": "22Rv1 cells", "experiment": "cells", "conditions": "Homo sapiens, 22Rv1, 168 h", "method": "(§1) In vitro cytotoxicity of niraparib was assessed in 5 human prostate cancer cell lines: C4-2B, LNCaP, LNCaP AR.TB, VCaP, and 22Rv1. C4-2B, LNCaP, LNCaP AR.TB, and 22Rv1 cell lines were grown in RPMI1640±GlutaMAX™-I medium (Life Technologies #61870-036) supplemented with 10% heat-inactivated fetal bovine serum (FBS) (Life Technologies 416140-071) and non-essential amino acids (NEAA) (Life Technologies #11140-050); and VCaP cells were grown in DMEM+GlutaMAX™-I medium (Life Technologies ##10569-010) with 10% FBS and NEAA. VCaP cells were subcultured every 7 days; other lines were split every 3-4 days. Cell growth kinetics of each cell line were determined by seeding cells at several densities and monitoring growth at intervals up to 7 days. Growth was determined using the Promega Cell TiterGlo reagent (#G7571) to measure cellular ATP by means of a chemiluminescent luciferin-luciferase reaction. […] For niraparib cytotoxicity experiments, cells were harvested by brief trypsinization and each line was seeded to the inner 60 wells of 96-well plates in 100 μL of medium at an appropriate density for a 7-day treatment. The outer wells of each plate were filled with Dulbecco's phosphate buffered saline (DPBS; Life Technologies #14190-144) to reduce evaporation from test wells. Cells were rested overnight in the plates at 37° C. in a humidified 5% CO2 incubator. […] The final vehicle concentration was 0.5% DMSO. Cells were cultured for 7 days. Relative cell viability after treatment was determined using Cell TiterGlo reagent, as above. All luminescent output values were normalized to percent inhibition based on mean luminescence of the untreated control wells, and the mean percent inhibition of the vehicle control wells was subtracted from each treatment value. Percent inhibition was plotted vs log μM concentration in GraphPad Prism 7.00. Nonlinear regression and calculation of EC50 values were performed using the log(agonist) vs. response—Variable slope (four parameters) fit."}, "C4-2B cells": {"tested_on": "C4-2B cells", "experiment": "cells", "conditions": "7-day niraparib treatment", "method": "as §1"}, "LNCaP cells": {"tested_on": "LNCaP cells", "experiment": "cells", "conditions": "Homo sapiens, 168 h", "method": "as §1"}, "VCaP cells": {"tested_on": "VCaP cells", "experiment": "cells", "conditions": "7-day niraparib treatment", "method": "as §1"}, "LNCaP AR.TB cells": {"tested_on": "LNCaP AR.TB cells", "experiment": "cells", "conditions": "Homo sapiens, 168 h", "method": "as §1"}, "[2]": {"tested_on": "poly(ADP)ribose (PAR) formation in VCaP cells", "conditions": "0.01-100 μM, two hours", "method": "(§2) PAR inhibition using niraparib was assessed in 2 human prostate cancer cell lines, C4-2B and VCaP. The C4-2B cell line was grown in RPMI1640±GlutaMAX™-I medium supplemented with 10% FBS and NEAA and split every 3-4 days. VCaP cells were grown in DMEM+GlutaMAX™-I medium with FBS and NEAA and subcultured every 7 days.\n(§3) Cells were harvested by brief trypsinization and each line was seeded into 6-well plates in 1 mL of medium at an appropriate density. An extra 500 μL of complete medium was added, for a total volume per well of 1.5 mL. Cells were rested overnight in the plates at 37° C. in a humidified 5% CO2 incubator. The next day, medium was removed from plates and cells were washed using 1 mL serum free medium (RPMI or DMEM respectively). Treatment was initiated by addition of 1 mL of niraparib (final concentrations 100, 10, 1, 0.1, 0.01 and 0 μM in 0.1% DMSO) in the appropriate medium to triplicate wells. Plates were returned to the incubator for two hours.\n(§4) Following treatment, extracts were prepared using reagents and procedures provided in the HT PARP in vivo Pharmacodynamic Assay II (Trevigen #4520-096-K). Medium was removed from each well and placed into separate labeled microfuge tubes, and the plates were placed on ice. The tubes were spun at 1500 rpm for 4 minutes to pellet any cells that detached from the plate during drug incubation.\n(§5) Samples were assayed in duplicate."}, "[3]": {"tested_on": "poly(ADP)ribose (PAR) formation in C4-2B cells", "conditions": "0.01-100 μM, two hours", "method": "as §2, §3, §4, §5"}, "γ-H2AX in C4-2B cells": {"tested_on": "γ-H2AX in C4-2B cells", "conditions": "C4-2B (printed C4-28), 18 hours"}, "[4]": {"tested_on": "γ-H2AX in LNCaP AR.TB cells", "conditions": "18 hours"}}, "note": "pEC50: −log10 of the molar value. Read-outs that look alike come from different tables or passages of the source.", "data": [{"smiles": "NC(=O)c1cccc2cn(-c3ccc([C@@H]4CCCNC4)cc3)nc12", "note": "[niraparib, 2-[4-[(3S)-piperidin-3-yl]phenyl]indazole-7-carboxamide]", "values": [{"measurement": "tumor growth inhibition (TGI)", "setting": "[1]; 25 mg/kg QD p.o., days 22 and 24, not significant", "value": "~12", "unit": "%"}, {"measurement": "tumor growth inhibition (TGI)", "setting": "[1]; 50 mg/kg QD p.o., days 18, 22 and 24, significant", "value": "~40", "unit": "%"}, {"measurement": "1st Significant Concentration (minimum concentration that induces significant change in γ-H2AX)", "setting": "γ-H2AX in 22RV1 cells", "value": 1.57, "unit": "µM"}, {"measurement": "pEC50", "setting": "22Rv1 cells", "value": 5.45}, {"measurement": "pEC50", "setting": "C4-2B cells", "value": 5.91}, {"measurement": "pEC50", "setting": "C4-2B cells; Homo sapiens, 168 h", "value": "~5.92"}, {"measurement": "pEC50", "setting": "LNCaP cells", "value": 5.46}, {"measurement": "pEC50", "setting": "VCaP cells", "value": 5.39}, {"measurement": "pEC50", "setting": "VCaP cells; Homo sapiens, 168 h", "value": 5.39}, {"measurement": "pEC50", "setting": "LNCaP AR.TB cells", "value": 5.67}, {"measurement": "PAR (pg PAR/mg of protein)", "setting": "[2]", "value": "reduced in a dose-dependent fashion"}, {"measurement": "PAR (pg PAR/mg of protein)", "setting": "[3]", "value": "reduced in a dose-dependent fashion"}, {"measurement": "1st Significant Concentration (minimum concentration that induces significant change in γ-H2AX)", "setting": "γ-H2AX in C4-2B cells", "value": 1.57, "unit": "µM"}, {"measurement": "1st Significant Concentration (minimum concentration that induces significant change in γ-H2AX)", "setting": "[4]", "value": 3.13, "unit": "µM"}]}]}
